Where a name gives a salt, the structure may show the parent alone. Ends that are not written are not given here.
Key:
Format in all cases: in vivo
[1] = system: spontaneous breast cancer rat cells (SST-2); assay: Lung metastasis of implanted SST-2 cells in SHR rats (Example 3); conditions: 35 days after implantation; for Number of Metastasis Colonies (average), Peroral Administration: 1 mg/rat perorally from day of implantation to day 34; for Number of Metastasis Colonies (average), Subcutaneous Injection: 1 mg/rat subcutaneous injection from day of implantation to day 34
Protocol: 1×100,000 spontaneous breast cancer rat cells (SST-2) were subcutaneously implanted into the back of a rat (SHR rat) (5 rats per group) suffering from spontaneous hypertension. After 35 days, the rats were sacrificed, and the lung weight and the number of colonies formed were measured to examine the degree of metastasis of SST-2 to the lung. The compounds shown in Tables 3 and 4 each was administered perorally or through subcutaneous injection in a dose of 1 mg/rat over the period from the day of implantation to 34 days after implantation. The number of colonies formed was compared with that in the control group not subjected to any treatment, to examine metastasis to the lung.

[2] = system: spontaneous breast cancer rat cells (SST-2); assay: Lung metastasis of SST-2 in SHR rats, ascorbic acid derivative combined with known anticancer agent (Example 4)
[3] = system: spontaneous breast cancer rat cells (SST-2); assay: as above; remark: listed apart in the source
Protocol: 1×100,000 spontaneous breast cancer rat cells (SST-2) were subcutaneously implanted into the back of a rat (SHR rat) (5 rats per group) suffering from spontaneous hypertension. After 35 days, the rats were sacrificed, and the number of colonies formed were measured to examine the degree of metastasis of SST-2 to the lung.
The ascorbic acid derivatives used were L-ascorbic acid-2-phosphate-6-palmitate, L-ascorbic acid-6-benzoate (reference compound) and magnesium L-ascorbic acid-2-phosphate.
Each of the groups treated with an ascorbic acid derivative was subjected to a test of administering the ascorbic acid derivative alone and to a test of administering the ascorbic acid derivative in combination with a known anticancer agent as shown in Table 4. Furthermore, tests of administering the anticancer agents alone were conducted. Over the period of from 7 days prior to implantation to 34 days after the implantation, the ascorbic acid derivative was injected through a vein in the tail region at a dose of 1 mg/1 day/rat. Each of the known anticancer agents was perorally administered in a minimum dose by reference to the concentration for a single use case described in the publication, Tyakuhin Yoran (Medical Product Handbook), 4th Edition, pp. 1474-1509, Yakugyo Jiho-Sha (1989), and the number of colonies formed after metastasis was compared.

[4] = ascorbic acid derivative 1 mg/1 day/rat tail vein, day -7 to day 34, known anticancer agent perorally in minimum dose, colonies after 35 days

Compound | Number of Metastasis Colonies (average), Peroral Administration [1] | Number of Metastasis Colonies (average), Subcutaneous Injection [1] | Cancer metastasis inhibitory effect of combination with L-Ascorbic Acid-2-Phosphate-6-Benzoate versus each agent alone [2, 4] | Cancer metastasis inhibitory effect of combination with L-Ascorbic Acid-6-Palmitate versus each agent alone [2, 4] | Cancer metastasis inhibitory effect of combination with L-Ascorbic Acid-2-Phosphate-6-Palmitate versus each agent alone [3, 4] | Cancer metastasis inhibitory effect of combination with L-Ascorbic Acid-2-Phosphate-6-Benzoate versus each agent alone ([2]; rat, in vivo) | Cancer metastasis inhibitory effect of combination with L-Ascorbic Acid-6-Palmitate versus each agent alone ([2]; rat, in vivo) | Cancer metastasis inhibitory effect of combination with L-Ascorbic Acid-2-Phosphate-6-Palmitate versus each agent alone ([3]; rat, in vivo)
CC(C)(C)C(=O)OC[C@H](O)[C@H]1OC(=O)C(O)=C1OP(=O)(O)O [6-O-Pivaloyl-L-ascorbic acid-3-phosphate] | 89.6 | 86.2 |  |  |  |  |  | 
CCCCCCCCCCCCCCCC(=O)OC[C@H](O)[C@H]1OC(=O)C(OC(=O)CCCCCCCCCCCCCCC)=C1O [L-Ascorbic acid-2,6-dipalmitate] | 89.8 | 86.6 |  |  |  |  |  | 
COC1(O[C@H]2CC[C@H]3[C@@H]4CC[C@H]5C[C@@H]6S[C@@H]6C[C@]5(C)[C@H]4CC[C@]23C)CCCC1 [mebitiostan] |  |  | + | − | + |  |  | 
S=c1nc[nH]c2nc[nH]c12 [meercaptopurine] |  |  |  |  |  | + | − | +
NC(Cc1ccc(N(CCCl)CCCl)cc1)C(=O)O (stereo not shown) [merphalan] |  |  | + | − | + |  |  | 
CN(Cc1cnc2nc(N)nc(N)c2n1)c1ccc(C(=O)N[C@@H](CCC(=O)O)C(=O)O)cc1 [methotrexate] |  |  | + | − | + |  |  | 
CO[C@@]12[C@H](COC(N)=O)C3=C(C(=O)C(C)=C(N)C3=O)N1C[C@@H]1N[C@@H]12 [mitomycin C] |  |  |  |  |  | + | − | +
Cc1ncc(CNC(=O)N(CCCl)N=O)c(N)n1 [nimustine hydrochloride] |  |  |  |  |  | + | − | +
CNNCc1ccc(C(=O)NC(C)C)cc1 [procarbazine hydrochloride] |  |  | + | − | + |  |  | 
CC/C(=C(\c1ccccc1)c1ccc(OCCN(C)C)cc1)c1ccccc1 [tamoxifen citrate] |  |  | + | − | + |  |  | 
O=c1[nH]c(=O)n(C2CCCO2)cc1F (stereo not shown) [tegaful] |  |  |  |  |  | + | − | +
OC[C@H]1O[C@@H](n2cnc3c(S)ncnc32)[C@H](O)[C@@H]1O [thioinosine] |  |  | + | − | + |  |  | 
CC[C@]1(O)C[C@@H]2CN(CCc3c([nH]c4ccccc34)[C@@](C(=O)OC)(c3cc4c(cc3OC)N(C)[C@H]3[C@@](O)(C(=O)OC)[C@H](OC(C)=O)[C@]5(CC)C=CCN6CC[C@]43[C@@H]65)C2)C1 [vinblastine sulfate] |  |  | + | − | + |  |  | 
CC[C@]1(O)C[C@H]2CN(CCc3c([nH]c4ccccc34)[C@@](C(=O)OC)(c3cc4c(cc3OC)N(C=O)[C@H]3[C@@](O)(C(=O)OC)[C@H](OC(C)=O)[C@]5(CC)C=CCN6CC[C@]43[C@@H]65)C2)C1 [vincristine sulfate] |  |  | + | − | + |  |  | 
CC[C@]1(O)C[C@@H]2CN(CCc3c([nH]c4ccccc34)[C@@](C(=O)OC)(c3cc4c(cc3OC)N(C)[C@H]3[C@@](O)(C(N)=O)[C@H](O)[C@]5(CC)C=CCN6CC[C@]43[C@@H]65)C2)C1 [vindesine sulfate] |  |  | + | − | + |  |  | 
CDPGYIGSR-NH2 [CDPGYGSR-NH2] |  |  |  |  |  | + | − | +
CIZOFERAN |  |  | + | − | + |  |  | 
L-asparginase |  |  |  |  |  | + | − | +
PLEOMYCIN sulfate |  |  |  |  |  | + | − | +
Platelet Factor-4 |  |  |  |  |  | + | − | +
lentinan |  |  | + | − | + |  |  | 
neocarzinostatin |  |  | + | − | + |  |  | 
peptidoglycan |  |  | + | − | + |  |  | 
pleomycin hydrochloride |  |  |  |  |  | + | − | +
protamine |  |  |  |  |  | + | − | +
vebromycin sulfate |  |  |  |  |  | + | − | +
